According to the SangsterLogP compilation:

Key:
[1] = method code SF-AS, from Holmes, L.; Lough, E. (1976). Effect of Intramolecular Hydrogen Bonding on Partition Coefficients [Technical Note]. Defence Research Establishment Suffield.
[2] = method code SF, from DOI: 10.1021/jm00378a018, PMID: 6389865; settings: pH 7.0
[3] = method code SF-GLC, from Hermens, J., & De Bruijn, J. (1987). A QSAR study for fish toxicity data of organophosphorus compounds. QSAR in Drug Design and Toxicology, 10, 343-345.
[4] = method code SF, from DOI: 10.1021/jm030913e.s001, PMID: 14736235; settings: pH 7.4
[5] = method code SF, from DOI: 10.1021/jm00307a001, PMID: 5637185
[6] = method code SF, from DOI: 10.1111/j.2042-7158.1971.tb08772.x, PMID: 4401532; settings: pH 7.2
[7] = method code SF-HPLC, from DOI: 10.1016/0378-5173(87)90234-1; settings: pH 4.0
[8] = not given; remark: listed apart in the source
[9] = method code SF-RC, from Audran, M.; Chanal, J.; Berge, G.; Marignan, R. (1983). Binding-structure correlation of bovine serum albumin in a series of cresotinamides. International Journal of Pharmaceutics, 15(3)273-284.; settings: pH 1.0
[10] = not given; remark: listed apart in the source
[11] = method code SF, from DOI: 10.1016/0048-3575(88)90017-x
[12] = from Dutta, H.; Mehta, N.; SenGupta, M.; Pal, D.; Sengupta, C.; De, A. (1988). Dioxanide furoate: studies on its interaction with blood phospholipid in relation to partition coefficients of related drugs. …
[13] = method code SF-AS, from DOI: 10.1021/es00012a023, PMID: 22148214
[14] = method code SF-AS, from DOI: 10.1021/jm00223a031, PMID: 810572
[15] = method code SF, from DOI: 10.1016/j.bmcl.2006.04.097, PMID: 16714112
[16] = method code SF-AS, from DOI: 10.1016/0006-2952(93)90433-w, PMID: 8494536; settings: pH 7.4
[17] = method code SF, from DOI: 10.1016/0360-3016(86)90226-9, PMID: 3744928; settings: pH 7.4
[18] = not given; remark: listed apart in the source
[19] = not given; remark: listed apart in the source
[20] = method code SF-AS, from DOI: 10.1111/j.2042-7158.1979.tb13606.x, PMID: 41067; settings: pH 1.2
[21] = not given; remark: listed apart in the source
[22] = method code SF-AS, from DOI: 10.1002/1521-3838(200111)20:4<291::aid-qsar291>3.0.co;2-q
[23] = method code SF-HPLC, from DOI: 10.1016/0378-5173(82)90005-9; settings: pH 3.0
[24] = method code SF, from DOI: 10.1515/bc.2002.085, PMID: 12108546
[25] = method code SF-HPLC, from DOI: 10.1016/s0223-5234(02)01360-0, PMID: 12008054; settings: pH 7.4
[26] = method code SF-AS, from DOI: 10.1021/jm00163a043, PMID: 2153206; settings: pH 7.0
[27] = method code SF-AS, from DOI: 10.1007/bf02877675, PMID: 411721
[28] = method code SF-AS, from DOI: 10.1002/jps.2600800717, PMID: 1658297

## CNc1ccccc1C
other
  logP: 2.16

## O=C(c1ccccc1)c1ccccc1O
[1]
  logP: 3.52

## Nc1nc(NCC(O)CO)c(Cl)nc1[N+](=O)[O-] (stereo not given)
[2]
  logD: -0.22

## COP(=S)(OC)Oc1cc(Cl)c(I)cc1Cl
[3]
  logP: 4.61

## CCC[C@@H]1CC(=O)N([C@@H](CC)C(N)=O)C1
[4]
  logD: 1

## C#CC(C=C)(CC)OC(N)=O (stereo not given)
[5]
  logP: 1.09

## CC(=O)N(C)c1ccc(O)cc1
[6]
  logD: 0.61

## O=C(c1ccccn1)n1c(=O)[nH]cc(F)c1=O
[7]
  logD: -0.06

## c1ccc(N(c2ccccc2)c2ccccc2)cc1
[8]
  logP: 5.22

## CCNC(=O)c1cc(Br)cc(C)c1O
[9]
  logD: 3.61

## CCNc1nc(NC(C)CC)nc(OC)n1 (stereo not given)
[10]
  logP: 2.96

## CC(=O)OCN1C(=O)C2CC=CCC2C1=O (stereo not given)
[11]
  logP: 0.97

## CN(C(=O)C(Cl)Cl)c1ccc(OC(=O)c2ccco2)cc1
[12]
  logP: 2.24

## CC(C)OC(=O)CS(=O)c1ccc([N+](=O)[O-])cc1[N+](=O)[O-] (stereo not given)
[13]
  logP: 1.61

## COc1ccc(O)c2ncccc12
[14]
  logP: 2.06

## CC[C@@H](C(N)=O)N1C[C@H](CI)CC1=O
[4]
  logD: 0.51

## Cc1cc(Br)cc(C(=O)NC(C)C)c1O
[9]
  logD: 4.19

## O=[N+]([O-])c1ccccc1C1=NCCO1
[15]
  logP: 1.27

## O=C(Nc1ccc(O)cc1)C(Cl)Cl
[12]
  logP: 1.6

## Fc1cccc(Cl)c1C1=NCCO1
[15]
  logP: 1.89

## NS(=O)(=O)c1cccc2ccccc12
[16]
  logD: 1.55

## CCC1(CC)SCC(=O)NC1=O
[5]
  logP: 1.5

## CCCCCCOC(=O)n1cc(F)c(=O)[nH]c1=O
[7]
  logD: 2.04

## O=[N+]([O-])c1ncn(CC(O)CN2CC2)n1 (stereo not given)
[17]
  logD: -0.72

## CC(C)(C)c1ccc(O)c(C(C)(C)C)c1
[18]
  logP: 4.74

## O=C(O)Cc1cc(Cl)c(Cl)cc1Cl
[19]
  logP: 3.6

## COc1ccc(CCC(=O)O)cc1
[20]
  logD: 1.9

## O=[N+]([O-])c1ccc(Oc2ccccc2)cc1
[8]
  logP: 3.79

## CN(C(=O)C(Cl)Cl)c1ccc(OC(=O)c2ccccc2)cc1
[12]
  logP: 2.56

## CCCCCCN1CC(C(=O)OC)CC1=O (stereo not given)
[21]
  logP: 2.3

## S=c1[nH]nc(-c2ccc(Br)cc2)o1
[22]
  logP: 3.93

## C#CC(/C=C/Cl)(CC)OC(N)=O (stereo not given)
[5]
  logP: 1.71

## O=C1NC(=O)C2(CCCCCC2)C(=O)N1
[23]
  logD: 1.36

## CCCCCCCCOC(=O)C1(C)CCC=[N+]1[O-] (stereo not given)
[24]
  logP: 1.62

## Fc1cccc(F)c1C1=NCCO1
[15]
  logP: 1.45

## CC(C)(C)c1cc(C(C)(C)C)c(O)c(C(C)(C)C)c1
[18]
  logP: 6.3

## COc1ccc(C(=O)O)cc1
[20]
  logD: 1.88

## CNC(=NC#N)NCCSCc1nc[nH]c1C
[25]
  logD: 0.35

## Cc1cn([C@H]2C=C[C@@H](CO)O2)c(=O)[nH]c1=S
[26]
  logD: 0.09

## COc1ccc(N(C)C(C)=O)cc1
[6]
  logD: 0.72

## Cc1ccc(NN=C(C#N)C#N)cc1
[27]
  logP: 3.02

## O=C(O)Cc1ccc(F)cc1
[19]
  logP: 1.6

## N#CC(C#N)=NNc1ccccc1
[27]
  logP: 2.49

## CC(=O)OCN1C(=O)c2cccc3cccc(c23)C1=O
[11]
  logP: 2.34

## O=C(O)Cc1ccc(Oc2cccc(Br)c2)cc1
[19]
  logP: 4.1

## Oc1cccc2c(Cl)ccnc12
[14]
  logP: 2.67

## CC(=O)Nc1ccc(Cl)cc1
[6]
  logD: 1.87

## CC1(C)CC(N(N=O)C(=O)NC2C(O)OC(CO)C(O)C2O)C(C)(C)N1O (stereo not given)
[28]
  logP: 1.81

## CN(N=O)C(=O)NC[C@H](O)[C@@H](O)[C@H](O)[C@H](O)CO
[28]
  logP: -0.96

## COc1ccc(-c2n[nH]c(=S)o2)cc1
[22]
  logP: 3

## CCOC(=O)C1(C)CCC=[N+]1[O-] (stereo not given)
[24]
  logP: -0.82

## CC(=O)c1ccc([N+](=O)[O-])cc1
[8]
  logP: 1.61

## CC1(C)CC(N(N=O)C(=O)NC2C(O)OC(CO)C(O)C2O)CC(C)(C)N1O (stereo not given)
[28]
  logP: 1.87

## CCCCNC(=O)Cn1cnc([N+](=O)[O-])n1
[17]
  logD: 0.89

## Cc1cc(Br)cc(C(N)=O)c1O
[9]
  logD: 2.76

## CC(C)C[C@H]1C(=O)N2CCC[C@H]2[C@]2(O)O[C@](NC(=O)[C@@H]3C=C4c5cccc6[nH]c(Br)c(c56)C[C@H]4N(C)C3)(C(C)C)C(=O)N12
[25]
  logD: 4.61

## CC[C@@H](C(N)=O)N1CCCC1=O
[4]
  logD: -0.65

## Cc1ccccc1N(C)C
other
  logP: 2.81

## CNc1nc(NC(C)C)nc(SC)n1
[10]
  logP: 2.79

## COC(=O)C1CC(=O)N(C)C1 (stereo not given)
[21]
  logP: -0.74

## CC(=O)Nc1nc(NCC(O)CO)c(Cl)nc1[N+](=O)[O-] (stereo not given)
[2]
  logD: 0

## CS(=O)(=O)c1ccccc1
[16]
  logD: 0.55

## CC(C)OC(=O)CS(=O)c1ccccc1[N+](=O)[O-] (stereo not given)
[13]
  logP: 1.59

## NC(=O)c1cccc2ccccc12
[16]
  logD: 1.88

## CC(=O)c1ccc(O)cc1
[1]
  logP: 1.45

## CCNc1nc(NCC)nc(OC)n1
[10]
  logP: 2.41

## O=C1NC(=O)C2(CCC2)C(=O)N1
[23]
  logD: -0.27

## CCCCCCCCCCCCN1CC(C(=O)O)CC1=O (stereo not given)
[21]
  logP: 2.6

## O=c1[nH]c(=S)ccn1[C@H]1C=C[C@@H](CO)O1
[26]
  logD: -0.28

## COP(=S)(OC)Oc1ccc(SC)cc1
[3]
  logP: 3.64

## COC(=O)CSc1ccccc1[N+](=O)[O-]
[13]
  logP: 1.88

## Cc1ccnc2c(O)cccc12
[14]
  logP: 2.36

## COP(=S)(OC)Oc1ccccc1
[3]
  logP: 2.97

## Nc1ccc(-c2n[nH]c(=S)o2)cc1
[22]
  logP: 2.03

## CC(=O)Nc1nc(N2CCN(C)CC2)c(Cl)nc1[N+](=O)[O-]
[2]
  logD: 0.5

## CC(C)OC(=O)n1cc(F)c(=O)[nH]c1=O
[7]
  logD: 0.2

## Cc1ccc2ccccc2n1
other
  logP: 2.59

## COc1cccc(C=O)c1O
[1]
  logP: 1.33

## Cc1ccc(C)c(O)c1
[18]
  logP: 2.48

## CCCCOC(=O)C1(C)CCC=[N+]1[O-] (stereo not given)
[24]
  logP: 0.12

## CCCCOc1ccc(C(=O)O)cc1
[20]
  logD: 3.57

## CC(=O)OCN1C(=O)C=C(C)C1=O
[11]
  logP: 0.45

## O=C(Cn1cnc([N+](=O)[O-])n1)N1CCOCC1
[17]
  logD: -0.96

## NC(N)=N/N=C/c1c(Cl)cccc1Cl
[25]
  logD: 1.4

## N#CC(C#N)=NNc1cccc(Cl)c1
[27]
  logP: 3.13
